We go through one compound from ChEMBL document CHEMBL5042519, “Design and synthesis of marine sesterterpene analogues as novel estrogen receptor α degraders for breast cancer treatment” (Eur J Med Chem, 2022).

pIC50: −log10 of the molar value. Active and inactive are the calls of the source. The rule behind the calls is not given here.

The subject of assay [1] is MCF7. In words: Inhibition of colony formation in human MCF7 cells at 0.5 to 2 uM measured after 9 days by crystal violet staining based assay. In kind it is functional, cell-based. The settings on record: dose 0.5-2 µM, time 9.0 day.
The target in assay [2] is T1, Estrogen receptor (Homo sapiens) (UniProt P03372).
T1 sequence (whole entry): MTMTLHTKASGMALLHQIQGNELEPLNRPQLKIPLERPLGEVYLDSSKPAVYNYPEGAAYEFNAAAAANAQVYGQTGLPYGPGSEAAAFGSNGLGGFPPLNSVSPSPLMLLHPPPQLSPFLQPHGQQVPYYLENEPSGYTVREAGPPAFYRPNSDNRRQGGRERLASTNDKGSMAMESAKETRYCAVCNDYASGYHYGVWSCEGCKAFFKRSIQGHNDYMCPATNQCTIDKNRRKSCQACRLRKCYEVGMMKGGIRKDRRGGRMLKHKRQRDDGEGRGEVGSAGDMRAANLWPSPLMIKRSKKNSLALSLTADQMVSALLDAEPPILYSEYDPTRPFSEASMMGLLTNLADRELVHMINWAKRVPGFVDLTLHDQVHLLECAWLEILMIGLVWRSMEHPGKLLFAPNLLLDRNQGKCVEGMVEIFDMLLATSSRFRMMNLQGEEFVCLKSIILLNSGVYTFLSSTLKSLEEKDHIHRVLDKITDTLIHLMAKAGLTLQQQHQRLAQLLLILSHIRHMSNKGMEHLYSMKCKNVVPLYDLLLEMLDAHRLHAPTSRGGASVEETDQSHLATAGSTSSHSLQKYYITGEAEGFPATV
Briefly: Induction of ERalpha degradation in human MCF7 cells assessed as ERalpha level at 3 uM measured after 24 hrs in presence of proteasome inhibitor MG132 by Western blot analysis. In kind it is cell-based.

Assay [3] relates to MCF7. In words: Induction of apoptosis in human MCF7 cells assessed as decrease in Bcl2 protein level at 0.5 to 3 uM and measured after 24 hrs Western blot analysis relative to control. The settings on record: dose 0.5-3 µM. In kind it is functional, cell-based. (In general: Immunoblotting shows a protein as a band on a membrane.)
Assay [4] relates to MCF7. Briefly: Effect on cell morphology in human MCF7 cells assessed as chromatin shrinkage at 0.5 to 2 uM measured after 24 hrs by Hoechst 33342 staining based fluorescence microscopy. In kind it is functional. Particulars: dose 0.5-2 µM.
For assay [5], the system named is MCF7. In words: Induction of apoptosis in human MCF7 cells assessed as increase in Bax protein level at 0.5 to 3 uM and measured after 24 hrs Western blot analysis relative to control. In kind it is functional, cell-based. The settings on record: dose 0.5-3 µM.
Assay [6] has as its system MCF7. In words: Antiproliferative activity against human MCF7/ADR cells assessed as reduction in cell viability after 48 hrs by MTT assay. In kind it is functional, cell-based. The settings on record: MCF7, 48 h. A general note: Tetrazolium assays rely on reduction of a dye to a coloured formazan, in cell work by metabolically active cells.
Assay [7] deals with T1, Estrogen receptor (Homo sapiens). In words: Induction of ERalpha degradation in human MCF7 cells assessed as decrease in ERalpha protein expression at 1 uM incubated for 24 hrs by Western blot analysis. Type of assay: cell-based.
For assay [8], the system named is MCF7. In words: Inhibition of colony formation in human MCF7 cells at 0.5 uM measured after 9 days by crystal violet staining based assay relative to control. Particulars: time 9.0 day. Type of assay: functional, cell-based.
In assay [9] the test system is MCF7. In words: Cell cycle arrest in human MCF7 cells assessed as accumulation at G1 phase at 2 uM measured after 24 hrs by propidium iodide staining based flow cytometry (reference value: 73.45 %). Type of assay: functional.
For assay [10], the system named is MCF7. In words: Antiproliferative activity against human MCF7 cells assessed as reduction in cell viability after 48 hrs by MTT assay. In kind it is functional, cell-based. The settings on record: MCF7, 48 h.
Assay [11] addresses T2, Progesterone receptor (Homo sapiens) (UniProt P06401).
T2 sequence (whole entry): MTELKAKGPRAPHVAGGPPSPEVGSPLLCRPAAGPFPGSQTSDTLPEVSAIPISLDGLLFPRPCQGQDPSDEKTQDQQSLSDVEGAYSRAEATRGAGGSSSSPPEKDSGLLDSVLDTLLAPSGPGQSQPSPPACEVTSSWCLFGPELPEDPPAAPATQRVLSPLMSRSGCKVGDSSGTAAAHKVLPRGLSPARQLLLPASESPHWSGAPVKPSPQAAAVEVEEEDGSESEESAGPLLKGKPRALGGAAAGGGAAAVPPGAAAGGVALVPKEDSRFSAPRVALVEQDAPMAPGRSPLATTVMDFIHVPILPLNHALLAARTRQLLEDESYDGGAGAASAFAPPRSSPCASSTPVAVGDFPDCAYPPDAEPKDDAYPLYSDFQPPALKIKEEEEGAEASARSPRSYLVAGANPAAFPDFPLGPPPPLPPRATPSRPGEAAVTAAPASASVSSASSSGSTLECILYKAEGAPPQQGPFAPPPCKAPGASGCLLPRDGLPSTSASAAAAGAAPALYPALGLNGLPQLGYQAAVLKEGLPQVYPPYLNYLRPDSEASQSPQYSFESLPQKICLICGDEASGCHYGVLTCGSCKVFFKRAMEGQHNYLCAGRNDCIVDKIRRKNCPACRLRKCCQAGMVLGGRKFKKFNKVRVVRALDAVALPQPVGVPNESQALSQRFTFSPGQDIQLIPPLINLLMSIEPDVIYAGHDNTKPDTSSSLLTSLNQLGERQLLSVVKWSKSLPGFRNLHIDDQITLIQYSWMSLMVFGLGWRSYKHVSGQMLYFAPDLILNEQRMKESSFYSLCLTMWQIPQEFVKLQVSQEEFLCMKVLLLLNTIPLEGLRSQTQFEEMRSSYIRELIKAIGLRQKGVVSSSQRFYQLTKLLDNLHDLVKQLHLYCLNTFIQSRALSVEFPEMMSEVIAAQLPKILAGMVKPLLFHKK
Briefly: Induction of progesterone receptor degradation in human MCF7 cells assessed as decrease in PR level at 1 uM incubated for 24 hrs by Western blot analysis. Type of assay: cell-based.

As to `CC1=CC(=O)[C@H]2/C(C=O)=C\C[C@H]3[C@@H]([C@@H](C)/C=C\C=C/C(=O)OCCOCCOCCOC(=O)CC45CC6CC(CC(C6)C4)C5)CC[C@]3(C)C[C@H]12`, the inhibition entry with MCF7 [1] and with MCF7 [8] was “Active” each time. Moreover, the result in [2] and in assay [11] was inactive. Further, the result (in the assay with MCF7 [3]; with MCF7 [4]; in the assay on MCF7 [5]; in [7]) was Active. In addition, the negative logarithm of the IC50 (pIC50) (as a rule, the negative decadic logarithm of the IC50, by convention in mol/L) was 6.32 in the assay on MCF7 [6] and 6.39 in the assay on MCF7 [10]. Also, the Activity with MCF7 [9] is given as 87.85%.
